Measurements as given in US20230279001A1, “IMIDAZO[1,2-A]PYRIDINE COMPOUNDS FOR THE TREATMENT OF AUTOIMMUNE DISEASE” (Hoffmann-La Roche Inc., priority 2020, published 2023).

Key:
[1] = Parallel Artificial Membrane Permeability Assay (PAMPA); assay type: in vitro ADME; conditions: for Membrane Retention / Papp at 4 h: PAMPA, pH 7.40, 4 hours; for Papp at 4 h: pH 7.4, room temperature, read-out: PAMPA Pe; for PAMPA category: classified by Pe and membrane retention
Method: PAMPA (Parallel Artificial Membrane Permeability Assay) is a first-line permeability screen for drug candidates. This assay mimics the transcellular absorption conditions using an artificial phospholipid membrane and generates a permeability value that can be used for compound ranking and optimization as well as input parameters for in silico models to predict intestinal absorption.
Permeation experiments are carried out in hydrophobic PVDF 96-well microtiter filter plates (MultiScreen Filter Plate, Millipore, #MAIPN4550). Each well is coated with PVDF membrane, which is prepared with 5 μL Dodecane (Sigma, D221104) that contains 1% lecithin (Sigma, P3556-1G).
The typical PAMPA experimental protocol is as follows: The donor plate is placed on a Teflon acceptor plate that has been pre-filled with […] of 100 mM PBS buffer (2.6 g KH2PO4 and 18.5 g K2HPO4·3H2O are dissolved in about 1000 mL of ultra-pure water and mixed thoroughly. The pH is adjusted to 7.40±0.05, using either 1 M sodium hydroxide or 1M hydrochloric acid) containing 5% DMSO. The filter on the bottom of each acceptor well is filled with 300 μL of 100 mM PBS buffer (2.6 g KH2PO4 and 18.5 g K2HPO4·3H2O are dissolved in about 1000 mL of ultra-pure water, mixed thoroughly. The pH was adjusted to 7.40±0.05, using either 1 M sodium hydroxide or 1M hydrochloric acid). The resulting sandwich is incubated at room temperature under constant shaking (300 rpm) for 4 hours. The sandwich is then disassembled. Before incubation, spike 20 μL dosing solution and mix with 250 μL PBS and 130 μL quench solution (acetonitrile) as TO sample. After incubation, collect 270 μL solutions from acceptor chamber, followed by the addition of 130 μL acetonitrile. Collect 20 μL solution from donor chamber and add 250 μL PBS and 130 μL acetonitrile. The concentration of compound in all samples are determined by LC-MS/MS and the equations for determining the permeability (Pe, 10^−6 cm/s) are as follows.
VD is the volume of the donor well; VR is the volume of the acceptor well; Area is the active surface area of membrane; Time is the incubation time (14,400 s in this assay); CR and CD are the concentrations of compound in acceptor and donor solutions, respectively, at the completion of the assay; C0 is the concentration of compound in donor solution before incubation.
The main readout of the PAMPA assay is the permeability value Pe expressed in 10^−6 cm/s. Secondary readouts determined are the amounts of compound in the donor and acceptor compartments as well as compound retention in the membrane. Depending on the permeation rate and the membrane retention, compounds are classified as “low” (Pe<0.2 and membrane retention<20%) or “medium & high” (Pe>=0.2; or Pe<0.2 and membrane retention>=20%). Each sample is measured in triplicate; the standard deviation is determined for the permeation constant Pe.

[2] = Human microsome stability assay; assay type: in vitro ADME; conditions: human liver microsomes, 1 μM test compound, 37° C., NADPH regenerating system
Method: The human microsomal stability assay is used for early assessment of metabolic stability of a test compound in human liver microsomes.
Human liver microsomes (Cat. NO.: 452117, Corning, USA; Cat. NO.: H2610, Xenotech, USA) were preincubated with test compound for 10 minutes at 37° C. in 100 mM potassium phosphate buffer, pH 7.4. The reactions were initiated by adding NADPH regenerating system. The final incubation mixtures contained 1 μM test compound, 0.5 mg/mL liver microsomal protein, 1 mM MgCl2, 1 mM NADP, 1 unit/mL isocitric dehydrogenase and 6 mM isocitric acid in 100 mM potassium phosphate buffer, pH 7.4. After incubation times of 0, 3, 6, 9, 15 and 30 minutes at 37° C., 300 μL of cold acetonitrile (including internal standard) was added to 100 μL incubation mixture to terminate the reaction. Following precipitation and centrifugation, the amount of compound remaining in the samples were determined by LC-MS/MS. Controls of no NADPH regenerating system at zero and 30 minutes were also prepared and analyzed.

TLR9 = TLR9 (Homo sapiens (Human), UniProt Q9NR96); test: Human PBMC cell-based assay, TLR9; conditions: CpG ODN 2216 at 1 μM, overnight, cytokine readout, read-out: hPBMC/TLR9 IC50
Description: Unlike the HEK reporter cell lines, human peripheral blood mononuclear cell (PBMC) represents primary human immune cells in blood mainly consisting of lymphocytes, monocytes, and dendritic cells. These cells express TLR7, TLR8, or TLR9, and therefore are natural responders to respective ligand stimulation. Upon activation of these TLRs, PBMCs secrete similar cytokines and chemokines in vitro and in vivo, and therefore the in vitro potency of a TLR7/8/9 antagonist in human PBMC is readily translatable to its pharmacodynamics response in vivo.
Human peripheral blood mononuclear cells (PBMC) were isolated from freshly-drawn lithium-heparinized (Lithium Heparin Plus blood Collection tube, BD Vacutainer®) healthy donor whole blood by density gradient (Ficoll-Paque™ PLUS, GE Healthcare life Sciences). Briefly, […] was diluted with 25 mL PBS (without Ca^2+, Mg^2+) in a 50 mL conical tube with porous barrier (Leucosep tube, Greiner bio-one), where 15.5 mL Ficoll-Paque was under laid after spinning. Tubes were centrifuged for 20 minutes at 800×g (1946 rpm) with the brake in the off position, and PBMC were collected from the buffy coat. Cells were then washed twice in PBS, and red blood cells were lysed by suspension in 2 mL (Red Blood Cell Lysis Buffer, Alfa Aesar) for 5-10 minutes at room temperature. After a final wash in PBS, PBMC were resuspended at a final concentration of 2×10^6 cells/mL in RPMI-1640 media with GlutaMAX™ (Gibco) supplemented with 10% Fetal Bovine Serum (Sigma) and plated at 150 μL/well (3×10^5 cells/well) in tissue culture treated round bottom 96-well plates (Corning Incorporated). Antagonist compounds (compounds of this invention) solubilized and serial diluted in 100% DMSO were added in duplicate to cells to yield a final concentration of 1% DMSO (v/v). PBMC were incubated with antagonist compounds for 30 minutes at 37° C., 5% CO2 before adding various TLR agonist reagents in 48 μL complete media per well as follows (final concentrations indicated): CpG ODN 2216 (InvivoGen) at 1 μM for TLR9, ORN 06/LyoVec (InvivoGen) at 1 μg/mL for TLR8 and R848 (InvivoGen) at 1 μg/mL for TLR7 and TLR8. PBMC were incubated overnight at 37° C. with 5% CO2. Cell culture supernatants were collected, and levels of various human cytokines were assessed by Luminex assay (ProcartaPlex™ Multiplex Immunoassay, Invitrogen) or ELISA procedure according to the manufacturer's recommended protocol (eBioscience, ThermoFisher Scientific). Viability of the cells was also checked with Cell Viability Assay (CellTiter Glo®Luminescent Cell Viability Assay, Promega).

Chain of TLR9 (Q9NR96 26-1032): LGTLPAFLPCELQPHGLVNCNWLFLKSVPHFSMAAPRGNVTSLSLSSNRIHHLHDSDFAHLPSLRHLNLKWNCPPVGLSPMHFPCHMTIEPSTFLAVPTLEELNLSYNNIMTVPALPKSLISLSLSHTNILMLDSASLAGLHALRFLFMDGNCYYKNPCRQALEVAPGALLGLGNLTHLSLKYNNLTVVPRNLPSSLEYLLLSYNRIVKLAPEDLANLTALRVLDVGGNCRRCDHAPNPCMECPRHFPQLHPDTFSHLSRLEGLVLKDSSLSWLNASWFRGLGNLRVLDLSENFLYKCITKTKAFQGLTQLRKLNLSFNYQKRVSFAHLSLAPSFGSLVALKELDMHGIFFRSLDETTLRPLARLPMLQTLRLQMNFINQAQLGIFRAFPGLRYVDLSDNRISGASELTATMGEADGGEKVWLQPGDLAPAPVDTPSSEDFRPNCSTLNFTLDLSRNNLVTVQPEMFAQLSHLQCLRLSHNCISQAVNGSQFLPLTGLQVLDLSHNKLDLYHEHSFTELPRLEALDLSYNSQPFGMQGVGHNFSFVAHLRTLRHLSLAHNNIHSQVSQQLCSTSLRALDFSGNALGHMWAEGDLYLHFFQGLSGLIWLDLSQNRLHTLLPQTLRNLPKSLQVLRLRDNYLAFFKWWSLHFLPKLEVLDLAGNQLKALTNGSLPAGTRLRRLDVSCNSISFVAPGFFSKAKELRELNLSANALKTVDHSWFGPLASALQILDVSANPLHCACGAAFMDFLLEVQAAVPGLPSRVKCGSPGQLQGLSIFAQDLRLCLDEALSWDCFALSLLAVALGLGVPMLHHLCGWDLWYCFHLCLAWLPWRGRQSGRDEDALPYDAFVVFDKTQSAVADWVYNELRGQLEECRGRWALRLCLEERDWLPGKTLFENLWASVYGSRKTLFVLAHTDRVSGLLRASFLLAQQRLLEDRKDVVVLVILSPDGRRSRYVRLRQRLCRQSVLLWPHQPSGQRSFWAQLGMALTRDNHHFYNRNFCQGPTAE

Membrane Retention [1] [%]	Papp at 4 h [1] [nm/s]	Clearance of Human microsome [2] [L/h/kg]	IC50 (TLR9) [µM]	Compound	PAMPA category [1]
20.3	8	0.369	–	Cc1cn2cc(-c3ccc(N4CCC(N5CCNCC5)CC4)nc3C(C)C)cc(C)c2n1 [Example 3, 6-[2-isopropyl-6-(4-piperazin-1-yl-1-piperidyl)-3-pyridyl]-2,8-dimethyl-imidazo[1,2-a]pyridine]	medium & high (“medium & high” (Pe>=0.2; or Pe<0.2 and membrane retention>=20%))
–	–	0.369	0.13	COc1nc(N2CCC(N3CCNCC3)CC2)ccc1-c1cc(C)c2nccn2c1 [Example 25, 6-[2-methoxy-6-(4-piperazin-1-yl-1-piperidyl)-3-pyridyl]-8-methyl-imidazo[1,2-a]pyridine]	–
–	–	0.369	0.47	CCc1nc(N2CCC(N3C[C@@H](N)[C@H](OC)C3)CC2)ccc1-c1cc(C)c2nccn2c1 [Example 15, (3R,4R)-1-[1-[6-ethyl-5-(8-methylimidazo[1,2-a]pyridin-6-yl)-2-pyridyl]-4-piperidyl]-4-methoxy-pyrrolidin-3-amine]	–
26.45	5	0.369	–	CCc1cc(-c2cc(C)c3nccn3c2)cnc1N1CCC2(CCNCC2)CC1 [Example 22, 3-[3-ethyl-5-(8-methylimidazo[1,2-a]pyridin-6-yl)-2-pyridyl]-3,9-diazaspiro[5.5]undecane]	medium & high (“medium & high” (Pe>=0.2; or Pe<0.2 and membrane retention>=20%))
17.82	21	–	–	Cc1cn2cc(-c3ccc(N4CCNC[C@H]4CO)nc3C(C)C)cc(C)c2n1 [Example 5, [(2S)-1-[5-(2,8-dimethylimidazo[1,2-a]pyridin-6-yl)-6-isopropyl-2-pyridyl]piperazin-2-yl]methanol]	medium & high (“medium & high” (Pe>=0.2; or Pe<0.2 and membrane retention>=20%))
–	–	–	0.1	CCc1nc(N2CCC(N3C[C@@H](N)[C@H](OC)C3)CC2)ccc1-c1cc(C)c2nc(C)cn2c1 [Example 17, (3R,4R)-1-[1-[5-(2,8-dimethylimidazo[1,2-a]pyridin-6-yl)-6-ethyl-2-pyridyl]-4-piperidyl]-4-methoxy-pyrrolidin-3-amine]	–
20.4	12	–	–	Cc1c(-c2ccc(N3CCC(N4CCNCC4)CC3)nc2C(C)C)cn2ccnc2c1C [Example 7, 6-[2-isopropyl-6-(4-piperazin-1-yl-1-piperidyl)-3-pyridyl]-7,8-dimethyl-imidazo[1,2-a]pyridine]	medium & high (“medium & high” (Pe>=0.2; or Pe<0.2 and membrane retention>=20%))
–	–	–	0.5	CCc1nc(N2CCC(C)(N)CC2)ccc1-c1cc(C)c2nc(C)cn2c1 [Example 20, 1-[5-(2,8-dimethylimidazo[1,2-a]pyridin-6-yl)-6-ethyl-2-pyridyl]-4-methyl-piperidin-4-amine]	–
9.47	8.4	0.421	–	Cc1cn2cc(-c3ccc(N4CCC(N5CCNCC5)CC4)nc3C(F)F)cc(C)c2n1 [Example 11, 6-[2-(difluoromethyl)-6-(4-piperazin-1-yl-1-piperidyl)-3-pyridyl]-2,8-dimethyl-imidazo[1,2-a]pyridine]	medium & high (“medium & high” (Pe>=0.2; or Pe<0.2 and membrane retention>=20%))
17.7	8.1	0.549	–	Cc1cc(-c2ccc(N3CCC(N4CCNCC4)CC3)nc2C(F)F)cn2ccnc12 [Example 10, 6-[2-(difluoromethyl)-6-(4-piperazin-1-yl-1-piperidyl)-3-pyridyl]-8-methyl-imidazo[1,2-a]pyridine]	medium & high (“medium & high” (Pe>=0.2; or Pe<0.2 and membrane retention>=20%))
34.49	8.5	–	–	Cc1cn2cc(-c3ccc(N4CCN5CCNCC5C4)nc3C(C)C)cc(C)c2n1 (centres unmarked) [Example 8, 2-[5-(2,8-dimethylimidazo[1,2-a]pyridin-6-yl)-6-isopropyl-2-pyridyl]-1,3,4,6,7,8,9,9a-octahydropyrazino[1,2-a]pyrazine]	medium & high (“medium & high” (Pe>=0.2; or Pe<0.2 and membrane retention>=20%))
17.52	12	0.495	–	Cc1cn2cc(-c3ccc(N4CCC(N)CC4)nc3C(C)C)cc(C)c2n1 [Example 4, 1-[5-(2,8-dimethylimidazo[1,2-a]pyridin-6-yl)-6-isopropyl-2-pyridyl]piperidin-4-amine]	medium & high (“medium & high” (Pe>=0.2; or Pe<0.2 and membrane retention>=20%))
22.73	8.7	–	–	Cc1cc(-c2ccc(N3CCC(N4CCNCC4)CC3)nc2C(C)C)cn2ccnc12 [Example 2, 6-[2-isopropyl-6-(4-piperazin-1-yl-1-piperidyl)-3-pyridyl]-8-methyl-imidazo[1,2-a]pyridine]	medium & high (“medium & high” (Pe>=0.2; or Pe<0.2 and membrane retention>=20%))
28	7.3	–	–	CCc1nc(N2CCC(N3CCNCC3)CC2)ccc1-c1cc(C)c2nc(C)cn2c1 [Example 21, 6-[2-ethyl-6-(4-piperazin-1-yl-1-piperidyl)-3-pyridyl]-2,8-dimethyl-imidazo[1,2-a]pyridine]	medium & high (“medium & high” (Pe>=0.2; or Pe<0.2 and membrane retention>=20%))
